These results are taken from patent publication US12410174B1, “Small molecular inhibitors of sting signaling compositions and methods of use” (TYERELL IMMUNOTHERAPEUTICS INC, priority 2020, dated 2025).

“Also recorded” adds a separate entry of the source.

Test [1] concerns STING signaling. As to the kind of experiment: Luciferase live cell assay, type I IFN promoter in hTERT-pIFNβ-Glu cells after ISD transfection. In kind it is cell-based, human. The procedure:
Inhibition of IFNβ expression was measured by Luciferase induction at 24 hours after transfection of ISD, Mock is shown (210), ISD treatment only (220) was used as a control, according to an embodiment of the invention;
Example 1: Identification of small molecule antagonists of STING. In the presence of cytosolic DNA species, STING becomes activated to drive the transcription of cytokines such as type I IFN. Compounds binding to STING via TSA were subsequently examined for their ability to prevent cytosolic DNA species from activating the type I interferon (IFN) promoter, using a live cell assay. This assay comprised immortalized human fibroblasts that were stably transfected with the type I IFN promoter driving luciferase as well as the CMV promoter driving SEAP (hTERT-pIFNβ-Glu). The live cell assay has previously been disclosed in PCT/JS2019/025380 entitled IFN-βETA REPORTER SYSTEM FOR IMMORTALIZED PRIMARY CELLS inventor Glen N. Barber, which was filed Apr. 2, 2018 and published as WO2019195285, and which is herein incorporated by reference in its entirety and for all purposes. The ability of the small molecules to prevent activation of the type I IFN promoter and the transcription of luciferase, but not SEAP in response to cytosolic DNA species was assessed. The activation of STING, typically by CDNs, in turn activates the transcription factors NF-κB and IRF3, both of which are required to induce the transcriptional stimulation of the Type I IFN promoter, but not the CMV promoter as IRF3 and NF-kB transcription factor binding sites are not contained in the CMV promoter. The assay identified the small molecule Compound Y1 in the first screen (HTS), where the level of luciferase was not able to activate the type I IFN promoter or induce the expression of luciferase (see Table I).
Example 4: hTERT-BJ1 Telomerase Fibroblasts (hTERT) were originally purchased from Clontech and were cultured in 4:1 ratio of DMEM:Medium 199 supplement with 10% FBS, 4 mM L-Glutamine and 1 mM sodium pyruvate at 37° C. in a 5% CO2-humidified atmosphere. hTERT-BJ1 Telomerase Fibroblasts stably expressing the luciferase gene under the control of the interferon-beta promoter and SEAP gene under control of the CMV promoter) (hTERT-pIFNβ-Glu) were generated by the Barber laboratory.
Example 7: Luciferase assay: hTERT-BJ1 Telomerase Fibroblasts stably expressing the luciferase gene under the control of the interferon-beta promoter and SEAP gene under control of the CMV promoter) (hTERT-pIFNβ-Glu) were generated by the Barber laboratory. Luciferase assay was performed using Secrete-Pair Dual Luminescence Assay Kit from GeneCopoeia following the manufacturer's protocol.

The test system of test [2] is STING signaling. As to the kind of experiment: qPCR of IFNβ1 / Cxcl10 in normal hTERT cells after ISD transfection. In kind it is cell-based, human. Conditions: normal hTERT cells stimulated with ISD; 50 μM, 25 μM or 5 μM. The procedure: (§1) Example 11: qPCR total RNA were reverse-transcribed using M-MLV Reverse Transcriptase (Promega). Real-time PCR was performed using Taqman Gene Expression Assay (Applied Biosystems) for innate immune genes and inflammatory cytokines.
(Quantitative PCR measures a nucleic acid by following its amplification.)

In test [3] the test system is STING signaling. As to the kind of experiment: Confocal analysis of STING trafficking and IRF3 translocation in hTERT cells. Conditions: 6 hours after ISD transfection. In kind it is cell-based, human. The procedure:
FIG. 2E are photographs showing confocal analysis of STING trafficking using anti-Sting performed at 6 hours after ISD transfection with Y1+220/without 220, Mock is shown (210), ISD treatment only (220) was used as control, treatment same as in FIG. 2A, according to an embodiment of the invention;
Example 10: Immunofluorescence Microscopy: Cells were cultured and treated in their appropriate media on Lab-Tek II chamber slides. Cell were fixed with 4% paraformaldehyde for 15 minutes in at 37° C. and permeabilized with 0.05% Triton X-100 for 5 minutes at room temperature. Immunostaining was performed with rabbit-anti-STING polyclonal, rabbit-anti-IRF3 (Santa Cruz Biotechnology) or rabbit-anti-p65 (Cell Signaling) followed by fluorescence conjugated secondary antibodies (FITC-goat-anti-rabbit) (Invitrogen).

The subject of test [4] is STING signaling. As to the kind of experiment: qPCR of Cxcl10 / Cxcl5 in MEF cells after ISD transfection. The test is classed as cell-based, murine. The procedure:
MEFs were obtained from E13.5 embryos by a standard procedure. Bone Marrow Derived Macro-phages (BMDM) were isolated from hind-limb femurs of 8-10 weeks old WT and Trex1 KO (TKO) mice. The hematopoietic cells from the bone marrow were cultured in complete DMEM (Invitrogen) including 10 ng/ml of Mouse Recombinant Colony-Stimulating Factor (M-CSF, R&D Systems) for 10 to 14 days.
as §1

Test [5] deals with STING signaling. Put plainly: Western blot of STING, TBK1 and IRF3 phosphorylation in MEF cells. Conditions: cytosolic DNA. In kind it is cell-based, murine. The procedure:
Example 8: Immunoblot analysis: Equal amounts of proteins were resolved on sodium dodecyl sulfate (SDS)-Polyacrylamide gels and then transferred to polyvinylidene fluoride (PVDF) membranes (Millipore). After blocking with 5% Blocking Reagent, membranes were incubated with various primary antibodies (and appropriate secondary antibodies). The image was resolved using an enhanced chemiluminescence system ECL (Thermo Scientific) and detected by autoradiography (Kodak). Antibodies: rabbit polyclonal antibody against STING was developed in our laboratory as described previously in Ishikawa et al, 2008; other antibodies were obtained from following sources: β-actin (Sigma Aldrich), p-IRF3 (Cell Signaling), IRF3 (Santa Cruz Biotechnology), p-p65 (Cell Signaling), p65 (Cell Signaling), p-TBK1 (Cell Signaling), TBK1 (Abcam), cGAS (Cell Signaling).

Another test deals with TREX1-deficient mice. Put plainly: Treatment of TREX1 knockout (TKO) mice: survival and heart histopathology. The test is classed as in vivo, mouse. The procedure: Example 12: Mouse Treatment: Trex1 Hetero knockout mice (Trex1^+/−) were generated by crossing the hetero mice. Mouse genotypes from tail biopsies were determined using Real Time PCR with specific probes designed for each gene by commercial vendor (Transnetyx). Trex1 KO (TKO) mice (4-5 weeks old) were intraperitoneally injected with 25 μg Z811 per mouse in 200 μL 1% DMSO in PBS. The mice were injected three times a week for 5 months. The survival rates were evaluated.
Example 13: Histopathology. Mice are sacrificed and the heart tissues were fixed in 10% formalin for 48 hours.

In the case of `Cc1cccc(C(=O)Nc2c(C#N)c3nc4ccccc4nc3n2CCc2ccccc2)c1Cl` [Compound Y9, 2-chloro-N-[3-cyano-1-(2-phenylethyl)-1H-pyrrolo [2,3-β]quinoxalin-2-yl]-3-methylbenzamide], the “inhibitory activity of the type I IFN promoter (luciferase induction)” value with STING signaling [1] (hTERT-pIFNβ-Glu cells, 50 μM or 25 μM, in response to ISD) is on record as “showed robust inhibitory activity of the type I IFN promoter”. Further, in the test with STING signaling [1] (test of the 25 novel analogs), the “criteria to inhibit STING dependent signaling (type I IFN promoter in human cells)” value was “found to meet the criteria to inhibit STING dependent signaling; also recorded: found to meet the criteria to inhibit STING dependent signaling and showed the most effective inhibitory activity”. The “production of STING-inducible cytokine Cxcl10 (qPCR)” value in the test on STING signaling [2] is on record as “robustly inhibited”. For the same molecule, in the test with STING signaling [3], the “IRF3 translocation (confocal analysis)” value is “reproducibly prevented STING trafficking and IRF3 phosphorylation”; the “STING trafficking (confocal analysis)” value was “reproducibly prevented STING trafficking and IRF3 phosphorylation”. Moreover, the “Cxcl10 production in response to ISD (qPCR)” value in the test on STING signaling [4] is reported as “impede the production of Cxcl10”. Moreover, the “phosphorylation of TBK1, IRF3 and STING (Western blot)” value with STING signaling [5] is “can prevent the phosphorylation of TBK1 and IRF3 as well as STING phosphorylation”. The “inflammation in the heart (H&E staining)” value in the test on TREX1-deficient mice was “Less inflammation in the heart”. Also, in the test with TREX1-deficient mice (intraperitoneal, 25 μg/mouse, 5 months, compared to mock treated), the “survival of TREX1-deficient mice” value is “extend the survival of TREX1-deficient mice”.
